Measurements: ChEMBL document CHEMBL1142870, “Antitumor potential of crown ethers: structure-activity relationships, cell cycle disturbances, and cell death studies of a series of ionophores” (J Med Chem, 2007)

Experiments:
HeLa = assay: Antiproliferative activity against HeLa cells after 72 hrs by MTT assay; type: functional, cell-based; details: Homo sapiens
NCI-H460 = assay: Antiproliferative activity against H460 cells after 72 hrs by MTT assay; type: functional, cell-based; details: Homo sapiens, NCI-H460, 72 h
MCF7 = assay: Antiproliferative activity against MCF7 cells after 72 hrs by MTT assay; type: functional, cell-based; details: Homo sapiens, MCF7, 72 h
MIA PaCa-2 [1] = assay: Antiproliferative activity against MiaPaCa2 cells after 72 hrs by MTT assay; type: functional, cell-based; details: Homo sapiens, MIA PaCa-2, 72 h
SW-620 = assay: Antiproliferative activity against SW620 cells after 72 hrs by MTT assay; type: functional, cell-based; details: Homo sapiens, SW-620, 72 h
MIA PaCa-2 [2] = assay: Cell cycle arrest at MiaPaCa2 cells by accumulation at G2/M phase at 10 nM after 24 hrs; type: functional, Homo sapiens
MIA PaCa-2 [3] = assay: Cell cycle arrest at MiaPaCa2 cells by accumulation at S phase at 10 nM after 36 hrs; type: functional, Homo sapiens
MIA PaCa-2 [4] = assay: Cell cycle arrest in MiaPaCa2 cells by accumulation at G1/G0 phase at 10 nM after 24 hrs; type: functional, Homo sapiens
MIA PaCa-2 [5] = assay: Cell cycle arrest in MiaPaCa2 cells by accumulation at SubG1 phase at 10 nM after 24 hrs; type: functional, Homo sapiens
MIA PaCa-2 [6] = assay: Cell cycle arrest in MiaPaCa2 cells by accumulation at G1 phase at 10 nM; type: functional, cell-based; details: Homo sapiens, TDE = time-dependent effect
MIA PaCa-2 [7] = assay: Cell cycle arrest in MiaPaCa2 cells by accumulation at G1/G0 phase at 10 nM after 48 hrs; type: functional, Homo sapiens
MIA PaCa-2 [8] = assay: Cell cycle arrest in MiaPaCa2 cells by accumulation at G1/G0 phase at 10 nM after 36 hrs; type: functional, Homo sapiens
MIA PaCa-2 [9] = assay: Cell cycle arrest in MiaPaCa2 cells by accumulation at SubG1 phase at 10 nM after 48 hrs; type: functional, Homo sapiens
MIA PaCa-2 [10] = assay: Cell cycle arrest in MiaPaCa2 cells by accumulation at SubG1 phase at 10 nM after 36 hrs; type: functional, Homo sapiens
MIA PaCa-2 [11] = assay: Cell cycle arrest at MiaPaCa2 cells by accumulation at S phase at 10 nM after 24 hrs; type: functional, Homo sapiens
MIA PaCa-2 [12] = assay: Cell cycle arrest at MiaPaCa2 cells by accumulation at S phase at 10 nM after 48 hrs; type: functional, Homo sapiens
MIA PaCa-2 [13] = assay: Cell cycle arrest at MiaPaCa2 cells by accumulation at G2/M phase at 10 nM after 36 hrs; type: functional, Homo sapiens
MIA PaCa-2 [14] = assay: Cell cycle arrest at MiaPaCa2 cells by accumulation at G2/M phase at 10 nM after 48 hrs; type: functional, Homo sapiens

Row | Compound | IC50 (HeLa) | IC50 (NCI-H460) | IC50 (MCF7) | IC50 (MIA PaCa-2 [1]) | IC50 (SW-620) | further results
1 | OCCN(CCO)Cc1ccccc1 | > 100 µM | > 100 µM | > 100 µM | > 100 µM | > 100 µM | 
2 | c1ccc2c(c1)OCCOCCOCCOc1ccccc1OCCOCCOCCO2 | 21 µM | 24 µM | > 100 µM | 32 µM | 72 µM | 
3 | c1ccc2c(c1)OCCOCCOc1ccccc1OCCOCCO2 | 17 µM | 28 µM | 49 µM | 28 µM | 17 µM | 
4 | c1ccc(CNCCOCCOCCNCc2ccccc2)cc1 | 24 µM | 31 µM | > 100 µM | > 100 µM | 39 µM | 
5 | CC(C)(C)c1cc(O)c(OCCOCCOc2c(O)cc(C(C)(C)C)cc2C(C)(C)C)c(C(C)(C)C)c1 | 11 µM | 8 µM | 29 µM | 18 µM | 19 µM | 
6 | CC(C)[C@@H]1NC(=O)[C@H](C)OC(=O)[C@@H](C(C)C)NC(=O)[C@@H](C(C)C)OC(=O)[C@H](C(C)C)NC(=O)[C@H](C)OC(=O)[C@@H](C(C)C)NC(=O)[C@@H](C(C)C)OC(=O)[C@H](C(C)C)NC(=O)[C@H](C)OC(=O)[C@@H](C(C)C)NC(=O)[C@@H](C(C)C)OC1=O [VALINOMYCIN] | 0.001 µM | 0.001 µM | 0.5 µM | 0.001 µM | 0.0001 µM | Activity (MIA PaCa-2 [2]): 24%; Activity (MIA PaCa-2 [3]): 12%; Activity (MIA PaCa-2 [4]): 60%; Activity (MIA PaCa-2 [5]): 35%; Activity (MIA PaCa-2 [6]): tde; Activity (MIA PaCa-2 [7]): 62%; Activity (MIA PaCa-2 [8]): 63%; Activity (MIA PaCa-2 [9]): 49%; Activity (MIA PaCa-2 [10]): 42%; Activity (MIA PaCa-2 [11]): 24%; Activity (MIA PaCa-2 [12]): 19%; Activity (MIA PaCa-2 [13]): 23%; Activity (MIA PaCa-2 [14]): 18%
7 | c1ccc(CN2CCOCCOCCN(Cc3ccccc3)CCOCCOCC2)cc1 | 14 µM | 25 µM | 25 µM | 23 µM | 6 µM | 
8 | CC(C)(C)c1cc2c(c(C(C)(C)C)c1)OCCOCCOc1c(cc(C(C)(C)C)cc1C(C)(C)C)OCCOCCO2 | 10 µM | 19 µM | 8 µM | 15 µM | 19 µM | 
9 | O=C(NCC(=O)N1CCOCCOCCN(C(=O)CNC(=O)OCc2ccccc2)CCOCCOCC1)OCc1ccccc1 | 37 µM | > 100 µM | 44 µM | 71 µM | 40 µM | 
10 | c1ccc(CN2CCOCCOCCOCCOCC2)cc1 | > 100 µM | > 100 µM | > 100 µM | > 100 µM | > 100 µM | 
11 | C1CCC2OCCOCCOC3CCCCC3OCCOCCOC2C1 (stereo not drawn) [ICOSAHYDRODIBENZO[B,K][1,4,7,10,13,16]HEXAOXACYCLOOCTADECINE] | 25 µM | 16 µM | 36 µM | 16 µM | 7 µM | 
12 | CC(C)(C)c1ccc(O)c(O)c1 | 24 µM | 22 µM | 23 µM | 20 µM | 22 µM | 
13 | c1ccc2c(c1)OCCOCCOCCOCCOc1ccccc1OCCOCCOCCOCCO2 | 11 µM | 9 µM | 30 µM | 7 µM | 17 µM | 
14 | COC(=O)[C@H](NC(=O)CN1CCOCCOCCN(CC(=O)N[C@@H](C(=O)OC)c2ccccc2)CCOCCOCC1)c1ccccc1 | > 100 µM | > 100 µM | > 100 µM | > 100 µM | ≥ 100 µM | 
